The target of this test is Protein cereblon/Androgen receptor (Homo sapiens) (UniProt P10275+Q96SW2). Description: In vivo protac activity at CRBN/AR in human VCaP cells xenografted in CB17 mouse assessed as increase in Androgen receptor degradation at 10 mg/kg, po for 16 hrs by ELISA. It is filed as functional, organism-based. A general note: In xenograft studies the graft and the host belong to different species.
Chain of Protein cereblon/Androgen receptor (Homo sapiens) (P10275 whole entry, looked up): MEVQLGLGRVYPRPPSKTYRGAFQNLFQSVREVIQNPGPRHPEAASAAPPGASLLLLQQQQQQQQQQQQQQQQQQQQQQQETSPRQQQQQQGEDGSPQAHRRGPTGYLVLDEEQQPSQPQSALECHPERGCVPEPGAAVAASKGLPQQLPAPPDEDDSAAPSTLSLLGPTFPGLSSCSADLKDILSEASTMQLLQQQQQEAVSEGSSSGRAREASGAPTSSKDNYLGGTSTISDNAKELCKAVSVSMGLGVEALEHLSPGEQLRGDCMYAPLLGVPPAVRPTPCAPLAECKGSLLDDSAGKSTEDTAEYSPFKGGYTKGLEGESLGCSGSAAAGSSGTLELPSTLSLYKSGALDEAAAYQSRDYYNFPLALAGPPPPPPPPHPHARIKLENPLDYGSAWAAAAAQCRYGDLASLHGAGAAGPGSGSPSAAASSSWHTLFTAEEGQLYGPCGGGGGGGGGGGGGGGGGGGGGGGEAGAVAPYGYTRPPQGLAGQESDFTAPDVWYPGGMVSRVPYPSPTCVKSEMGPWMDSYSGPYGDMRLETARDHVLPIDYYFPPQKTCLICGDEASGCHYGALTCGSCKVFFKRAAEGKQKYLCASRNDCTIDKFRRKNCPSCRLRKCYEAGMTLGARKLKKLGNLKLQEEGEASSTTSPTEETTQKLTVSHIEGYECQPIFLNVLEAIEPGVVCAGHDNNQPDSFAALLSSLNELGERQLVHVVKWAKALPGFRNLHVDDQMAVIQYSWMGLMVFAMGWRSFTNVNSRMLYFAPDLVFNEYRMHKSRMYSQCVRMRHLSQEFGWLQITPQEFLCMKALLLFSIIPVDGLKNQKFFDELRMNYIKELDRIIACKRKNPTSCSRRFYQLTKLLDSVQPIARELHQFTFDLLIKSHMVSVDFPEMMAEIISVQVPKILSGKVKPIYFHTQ
Chain of Protein cereblon/Androgen receptor (Homo sapiens) (Q96SW2 whole entry, looked up): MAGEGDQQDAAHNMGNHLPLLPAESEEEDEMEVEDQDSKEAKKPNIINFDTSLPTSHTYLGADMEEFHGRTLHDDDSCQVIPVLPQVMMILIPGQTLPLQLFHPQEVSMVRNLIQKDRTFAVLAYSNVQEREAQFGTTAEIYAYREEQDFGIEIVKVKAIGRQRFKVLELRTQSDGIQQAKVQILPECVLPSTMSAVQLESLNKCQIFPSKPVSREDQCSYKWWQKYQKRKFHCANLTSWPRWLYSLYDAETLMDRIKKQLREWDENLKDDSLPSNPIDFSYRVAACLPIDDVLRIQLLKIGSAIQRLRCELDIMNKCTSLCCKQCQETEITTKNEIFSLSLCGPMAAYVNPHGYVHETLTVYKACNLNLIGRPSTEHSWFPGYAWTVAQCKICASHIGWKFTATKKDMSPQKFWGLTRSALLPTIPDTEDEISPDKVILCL

With `CC1(C)[C@H](NC(=O)c2ccc(N3CCN(CCCCCOc4ccc5c(c4)C(=O)N(C4CCC(=O)NC4=O)C5=O)CC3)nc2)C(C)(C)[C@H]1Oc1ccc(C#N)c(Cl)c1` (stereo not given in full), the Activity was below 1%.

On to `CC1(C)[C@H](NC(=O)c2ccc(CCCCN3CCN(c4ccc5c(c4)C(=O)N(C4CCC(=O)NC4=O)C5=O)CC3)nc2)C(C)(C)[C@H]1Oc1ccc(C#N)c(Cl)c1` (stereo not given in full), for which the Activity came out at 10%. Take `CC1(C)[C@H](NC(=O)c2ccc(N3CCN(CCCOc4ccc5c(c4)C(=O)N(C4CCC(=O)NC4=O)C5=O)CC3)cc2)C(C)(C)[C@H]1Oc1ccc(C#N)c(Cl)c1` (stereo not given in full): the Activity is below 1%. Then `CC1(C)[C@H](NC(=O)c2ccc(N3CCN(CC4CCN(c5ccc6c(c5)C(=O)N(C5CCC(=O)NC5=O)C6=O)CC4)CC3)cc2)C(C)(C)[C@H]1Oc1ccc(C#N)c(Cl)c1` (stereo not given in full), with 1%; and `CC1(C)[C@H](NC(=O)c2cnc(N3CCC(CN4CCN(c5ccc6c(c5)C(=O)N(C5CCC(=O)NC5=O)C6=O)CC4)CC3)nc2)C(C)(C)[C@H]1Oc1ccc(C#N)c(Cl)c1` (stereo not given in full), with below 1%; and `CC1(C)[C@H](NC(=O)c2ncc(N3CCN(CCCCCOc4ccc5c(c4)C(=O)N(C4CCC(=O)NC4=O)C5=O)CC3)cn2)C(C)(C)[C@H]1Oc1ccc(C#N)c(Cl)c1` (stereo not given in full), with 1%. As for `CC1(C)[C@H](NC(=O)c2ccc(N3CCC(CN4CCN(c5ccc6c(c5)C(=O)N(C5CCC(=O)NC5=O)C6=O)CC4)CC3)nc2)C(C)(C)[C@H]1Oc1ccc(C#N)c(Cl)c1` (stereo not given in full), the Activity was below 1%.

`CC1(C)[C@H](NC(=O)c2ccc(C3CCC(CN4CCN(c5ccc6c(c5)C(=O)N(C5CCC(=O)NC5=O)C6=O)CC4)CC3)cc2)C(C)(C)[C@H]1Oc1ccc(C#N)c(Cl)c1` (stereo not given in full): the Activity was determined as 1%. Then `CC1(C)[C@H](NC(=O)c2ccc(N3CCN(CC4CN(c5ccc6c(c5)C(=O)N(C5CCC(=O)NC5=O)C6=O)C4)CC3)cc2)C(C)(C)[C@H]1Oc1ccc(C#N)c(Cl)c1` (stereo not given in full), with below 1%; and `CC1(C)[C@H](NC(=O)c2cnc(N3CCN(CCCCCOc4ccc5c(c4)C(=O)N(C4CCC(=O)NC4=O)C5=O)CC3)nc2)C(C)(C)[C@H]1Oc1ccc(C#N)c(Cl)c1` (stereo not given in full), with below 1%.

These data come from ChEMBL document CHEMBL5126653, “Targeted Degradation of Androgen Receptor for the Potential Treatment of Prostate Cancer” (ACS Med Chem Lett, 2022).
